{"source": "patent US8476235B2", "about": "(Apotex Technologies Inc., priority 2006, dated 2013)", "key": {"water solubility": {"assay": "water solubility", "format": "physicochemical", "conditions": "in water, organic solvent free"}, "[1]": {"assay": "speciation calculation using experimentally determined pKas (FIG. 8)", "format": "physicochemical", "conditions": "pH 2.7, concentration 0.5M", "source_text": "FIG. 8 illustrates the speciation calculation of the dipeptide H-D-iGlu-D-Trp-OH and its salt using experimentally determined pKas of the acid and amine groups. LH2 is the diacid form of the peptide H-D-iGlu-D-Trp-OH, LH is the mono carboxylic acid salt of H-D-iGlu-D-Trp-OH. An example of such is the mono ammonium salt. L refers to the diacid salt form and one such example is the disodium salt of the peptide H-D-iGlu-D-Trp-OH.\nThe pKas of the acid and amine groups of H-D-iGlu-D-Trp-OH are experimentally determined. In FIG. 8, LH2 is thymodepressin, LH is the monocarboxylic acid salt, L is the dicarboxylic acid salt, and LH3 is the acid addition salt of thymodepressin. The X axis provides the pH of the solution. The Y axis provides the % formation relative to L (the default terminology of the software) and reports the molar fraction of the species present at a particular pH. The concentration of 0.5M is used to reflect the equivalency of 1 gm of thymodepressin in 6 ml water during isolation purposes. […] For this reason, thymodepressin precipitates at pH 2.7 and can be filtered. The mother liquor can be concentrated to obtain a second crop of thymodepressin. The plot confirms the theoretical prediction that the diacid form of H-D-iGlu-D-Trp-OH predominates at pH of about 2.5 to about 3.0, which is the pH for the isolation of the diacid from water as a precipitate. […]"}, "pH of solution": {"assay": "pH of solution", "format": "physicochemical", "conditions": "in solution"}, "[2]": {"conditions": "solid form, cited from earlier work"}, "[3]": {"conditions": "HPLC method B", "procedure": "In method B, the samples are analyzed with a normal reverse phase column, there is virtually no difference in the retention times of the samples."}}, "note": "Where two headings read alike, the source gives them in different places."}
{"compound": "N[C@H](CCC(=O)N[C@H](Cc1c[nH]c2ccccc12)C(=O)O)C(=O)O", "note": "[thymodepressin, D-isoglutamyl-D-tryptophan]", "values": [{"measurement": "water solubility", "setting": "water solubility; listed as H-D-iGlu-D-Trp-OH", "result": "< 23", "unit": "mg per mL"}, {"measurement": "water solubility", "setting": "water solubility; listed as crystalline thymodepressin", "result": "about 20 mg per mL"}, {"measurement": "solubility", "setting": "water solubility; water", "result": "~23", "unit": "mg/mL"}, {"measurement": "molar fraction present as dicarboxylic acid form (LH2)", "setting": "[1]", "result": "about 75%"}, {"measurement": "pH of a solution", "setting": "pH of solution", "result": "about 3"}]}
{"compound": "D-isoglutamyl-D-tryptophan disodium salt", "values": [{"measurement": "hygroscopicity (in words)", "setting": "[2]; listed as D-isoglutamyl-D-tryptophan disodium salt", "result": "hygroscopic"}, {"measurement": "hygroscopicity (in words)", "setting": "[2]; disodium salt", "result": "extremely hygroscopic"}]}
{"compound": "D-isoglutamyl-D-tryptophan, mono ammonium salt (1:1)", "values": [{"measurement": "purity at 254 nm after 2 years of storage", "setting": "[3]", "result": 99.8, "unit": "%"}]}
